From patent US7445803B2, “Chromium (III) alpha amino acid complexes” (priority 2002, dated 2008)
Like-named read-outs stand apart in the source and are kept apart here.

What was measured:
[1] = after oral administration; cited from earlier work
rats = settings: cited from earlier work
[2] = Stability on addition of 0.1 molar sodium bicarbonate (precipitate formation); format: physicochemical
Protocol: (§1) A 10 ml portion was diluted with 200 ml of a 0.1 molar solution of sodium bicarbonate. […] An additional 600 ml of 0.1 molar sodium bicarbonate solution was added.
(§2) A 10 ml portion was diluted with 200 ml of a 0.1 molar solution of sodium bicarbonate.
as §2

[3] = pH of aqueous solution of the complex; format: physicochemical; settings: 0.1 molar in water
Protocol: as §1, §2, §2

[4] = system: periparturient dairy cows
Text: The effects of supplementation with chromium in the form of chromium tri-L-methionine hydrochloride on performance of periparturient dairy cows were studied. Seventy-two cows were used to determine whether milk production and dry matter intake were affected by chromium tri-L-methionine hydrochloride supplementation of the diet during the periparturient period. Cows were fed either a diet high in nonforage fiber sources or high in non-fiber carbohydrates from day 21 before expected parturition until parturition and then fed a common lactating diet. Chromium tri-L-methionine hydrochloride was supplemented once daily via gelcap at doses of 0, 0.03, or 0.06 mg Cr/kg of metabolic body weight. Chromium supplementation began on day 21 before expected parturition and continued until day 28 postpartum. Cows were milked after calving according to established procedures. Feed intake was recorded daily for each cow throughout the experiment. Samples of the diet were obtained weekly and the dry matter contents were determined. Individual milk weights were recorded at each milking during the lactating phase of the experiment. Milk samples were taken from all milkings during one 24-hours period each week, composited based on the amount of milk produced at each milking, and analyzed for fat, protein, lactose, and total solids.

rat [5] = system: rat
Protocol: Fifty 6 weeks old rats were used in the study (25 females and 25 males). Their body weight ranged from 130 to 220 g for males and 120-190 g for females. The animals were housed in polycarbonate cages over dust-free sawdust bedding in groups of five. The cages were placed in an air-conditioned room at 22° C. and 55% relative humidity. Rats were fed pelleted complete diet ad libitum. Animals were fasted overnight before dosing and given food 3-4 hours after dosing. Animals given water ad libitum. Animals were assigned at random to one of five treatments. Two groups of five animals each, one group of males and one group of females were assigned to each treatment. The treatments were control, 250 mg/kg, 500 mg/kg, 1000 mg/kg and 2000 mg/kg doses. A solution of the compound in water was administered in a single oral dose by gastric gavage. Animals were maintained for a 14-day observation period after receiving the dose. Surviving animals were killed on day 14. The weight of animals were recorded immediately before treatment, twice weekly for the study period and at death.

[6] = system: rat isolated adipose tissue; settings: cited from earlier work
rat [7] = settings: added to rat diet; cited from earlier work
[8] = system: Chinese hamster ovary cells; settings: cited from earlier work
[9] = system: rat skeletal muscle cultures; settings: rat skeletal muscle cultures in vitro; cited from earlier work
DNA = settings: cited from earlier work
[10] = cited from earlier work
Humans = settings: dietary supplementation, males and females; cited from earlier work
[11] = slightly more than 2 equivalents of 0.1 molar sodium bicarbonate to a 0.1M solution
[12] = 10 ml of 0.1 molar solution + 200 ml 0.1 molar sodium bicarbonate (20 molar equivalents)
[13] = additional 600 ml 0.1 molar sodium bicarbonate (80 molar equivalents in all)

CC(=O)/C=C(/C)[O-].CC(=O)/C=C(/C)[O-].CC(=O)/C=C(/C)[O-].[Cr+3] [Chromium Acetylacetonate]
absorption from the gastrointestinal tract [1]: rapidly absorbed

[Cl][Cr]([Cl])[Cl] [chromium chloride, reference compound]
toxicity in rats (rats; rats): lack of toxicity
pH of the mixture [2, 11]: 4.356
precipitate formation [2, 11]: voluminous precipitate

Chromium (III) Tri-leucinate Hydrochloride [Example 2]
pH of the solution after sodium bicarbonate [2, 12]: 7.987
precipitate formation [2, 12]: No precipitate was formed
pH of a 0.1 molar solution in water [3]: 3.996

Chromium (III) Tri-methionate Hydrochloride [Example 1]
% Milk Fat ([4]; 0.03 mg/kg BW^.75): 4.41%
% Milk Lactose ([4]; 0.03 mg/kg BW^.75): 4.69%
% Milk Protein ([4]; 0.03 mg/kg BW^.75): 3.37%
% Milk Solids ([4]; 0.03 mg/kg BW^.75): 13.39%
Milk Fat ([4]; 0.03 mg/kg BW^.75): 1.76 kg/day
Milk Lactose ([4]; 0.03 mg/kg BW^.75): 1.91 kg/day
Milk Production ([4]; 0.03 mg/kg BW^.75): 40.6 kg/day
Milk Protein ([4]; 0.03 mg/kg BW^.75): 1.33 kg/day
Milk Solids ([4]; 0.03 mg/kg BW^.75): 5.37 kg/day
Postpartum Dry Matter Intake ([4]; 0.03 mg/kg BW^.75): 18.9 kg/day
Prepartum Dry Matter Intake ([4]; 0.03 mg/kg BW^.75): 13.9 kg/day
% Milk Fat ([4]; 0.06 mg/kg BW^.75): 4.33%
% Milk Lactose ([4]; 0.06 mg/kg BW^.75): 4.61%
% Milk Protein ([4]; 0.06 mg/kg BW^.75): 3.15%
% Milk Solids ([4]; 0.06 mg/kg BW^.75): 13.03%
Milk Fat ([4]; 0.06 mg/kg BW^.75): 1.81 kg/day
Milk Lactose ([4]; 0.06 mg/kg BW^.75): 1.98 kg/day
Milk Production ([4]; 0.06 mg/kg BW^.75): 42.8 kg/day
Milk Protein ([4]; 0.06 mg/kg BW^.75): 1.31 kg/day
Milk Solids ([4]; 0.06 mg/kg BW^.75): 5.51 kg/day
Postpartum Dry Matter Intake ([4]; 0.06 mg/kg BW^.75): 19.4 kg/day
Prepartum Dry Matter Intake ([4]; 0.06 mg/kg BW^.75): 13.7 kg/day
effect on dry matter intake in cows ([4]; diet supplementation, 0.03 or 0.06 mg Cr/kg metabolic body weight): did not affect
pH of the solution after sodium bicarbonate [2, 12]: 8.097
precipitate formation [2, 12]: No precipitate was formed
pH of the solution after sodium bicarbonate [2, 13]: 8.354
precipitate formation [2, 13]: No precipitate was formed
body weight gain (rat [5]; 2000 mg/kg dose, 4000 folds the recommended dose): slight decrease
food consumption compared to control (rat [5]; 1000 and 2000 mg/kg doses): dose related decrease
gain in body weight (rat [5]; dose 2000 folds the recommended dose): not associated with a decrease
toxicity in rats (rat [5]; doses used / high doses): non-toxic
decrease in body weight gain (rat [5]; male rats, 2000 mg/kg single oral dose): 5%
macroscopic abnormalities at necropsy (rat [5]; necropsied on day 14 after the oral dose): no macroscopic abnormalities
mortality (rat [5]; single oral dose 250-2000 mg/kg, 14-day observation): No animals died
treatment-related clinical signs (rat [5]; single oral dose, any of the dose levels (250-2000 mg/kg)): no treatment-related clinical signs
toxicity (rat [5]; single oral dose, dose levels 1000 folds the recommended dose in pigs): did not induce any toxicity
pH of a 0.1 molar solution in water [3]: 4.078

chromium dinicotinate
insulin activity [6]: potentiated

chromium picolinate
glycation of hemoglobin (rat [7]): prevented
plasma glucose (rat [7]): significant decrease
chromosome damage [8]: produces chromosome damage
toxicity in rats (rats; rat, in vivo): lack of toxicity
glucose uptake [9]: increased
DNA cleavage (DNA): cleaves DNA
water solubility [10]: limited
lean body mass (Humans): significant increase
